The text below walks through data of US12649751B2 (Arcus Biosciences, Inc., priority 2022, dated 2026).

The target in one assay is HPK1 (Homo sapiens, UniProt Q92918). Description: HPK1 Biochemical Assay (ADP-Glo luminescence; low ATP 10 μM or high ATP 200 μM).
For assay [1], the system named is p-SLP-76 (Ser376) in Jurkat cells. In words: pSLP76 Cellular Assay (AlphaLISA SureFire Ultra p-SLP-76 (Ser376), anti-CD3 activated Jurkat cells). The class given is cell-based. To be noted: Homo sapiens; Jurkat cells, anti-CD3 stimulation, pSLP76; read-out: Cellular Potency. The procedure, abridged:
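Jurkat cells, serum-starved overnight in Opti-MEM then in HBSS, preincubated 1 h at 37 °C with 22-point 2-fold compound dilutions, then stimulated with anti-CD3 (0.025 mg/ml added solution) for 45 min. Lysate p-SLP-76 (Ser376) measured by AlphaLISA at 570 nm; IC50 from 4-parameter logistic fit.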

The mark [2] stands for this setting: 2 nM HPK1, 10 μM ATP, read-out: Biochemical Potency (low ATP).

Read-outs that look alike come from different tables or passages of the source.

Chain of HPK1 (Q92918 whole entry, species assumed): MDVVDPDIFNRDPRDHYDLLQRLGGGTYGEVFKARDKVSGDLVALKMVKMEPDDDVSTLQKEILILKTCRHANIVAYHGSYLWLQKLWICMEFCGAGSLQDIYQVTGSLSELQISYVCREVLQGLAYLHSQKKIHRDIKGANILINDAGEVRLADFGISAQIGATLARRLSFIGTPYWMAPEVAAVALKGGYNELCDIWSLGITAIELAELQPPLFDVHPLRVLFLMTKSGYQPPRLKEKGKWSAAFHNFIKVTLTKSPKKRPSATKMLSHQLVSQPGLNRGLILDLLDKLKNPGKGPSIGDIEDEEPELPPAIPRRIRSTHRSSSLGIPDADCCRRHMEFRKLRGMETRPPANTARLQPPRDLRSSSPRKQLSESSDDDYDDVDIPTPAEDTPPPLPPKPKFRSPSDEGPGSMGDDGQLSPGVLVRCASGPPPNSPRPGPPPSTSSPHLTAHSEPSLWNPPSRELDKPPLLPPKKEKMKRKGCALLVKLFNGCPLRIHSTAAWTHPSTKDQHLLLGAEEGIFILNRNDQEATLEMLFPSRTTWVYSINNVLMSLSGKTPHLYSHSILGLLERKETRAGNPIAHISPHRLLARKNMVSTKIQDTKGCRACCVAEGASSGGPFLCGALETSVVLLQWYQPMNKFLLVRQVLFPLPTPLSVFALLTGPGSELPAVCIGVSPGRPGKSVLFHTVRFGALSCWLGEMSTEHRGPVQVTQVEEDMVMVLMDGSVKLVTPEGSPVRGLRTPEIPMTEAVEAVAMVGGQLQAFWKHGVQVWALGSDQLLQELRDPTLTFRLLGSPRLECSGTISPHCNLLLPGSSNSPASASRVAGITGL

As for `c1cc(Nc2cc3nc(-n4cccn4)sc3cn2)nc(N2C[C@@H]3C[C@H]2CN3)c1` [Example 82, 6-[(1S,4S)-2,5-Diazabicyclo[2.2.1]heptan-2-yl]-N-[2-(1H-pyrazol-1-yl)-[1,3]thiazolo[5,4-c]pyridin-6-yl]pyridin-2-amine], the IC50 (at HPK1 (setting [2]); in assay [1]) was below 0.1 µM throughout.
Regarding `Cc1cccnc1-c1nc2cc(Nc3ccc(F)c(N4C[C@@H]5C[C@H]4CN5)n3)ncc2s1` [Example 83, 6-[(1S,4S)-2,5-Diazabicyclo[2.2.1]heptan-2-yl]-5-fluoro-N-[2-(3-methylpyridin-2-yl)-[1,3]thiazolo[5,4-c]pyridin-6-yl]pyridin-2-amine], the IC50 on HPK1 (setting [2]) was below 0.1 µM; in assay [1] it was 0.1 to 1 µM.
In the case of `Cc1cccnc1-c1nc2cc(Nc3ccc(C)c(N4C[C@@H]5C[C@H]4CN5)n3)ncc2s1` [Example 84, 6-[(1S,4S)-2,5-Diazabicyclo[2.2.1]heptan-2-yl]-5-methyl-N-[2-(3-methylpyridin-2-yl)-[1,3]thiazolo[5,4-c]pyridin-6-yl]pyridin-2-amine], the IC50 at HPK1 (setting [2]) was below 0.1 µM; in assay [1], 0.1 to 1 µM.
The matching figures for `Cc1cc(-c2nc3cc(Nc4cccc(N5CCNCC5)n4)ncc3s2)ccn1` [Example 85, N-[2-(2-Methylpyridin-4-yl)-[1,3]thiazolo[5,4-c]pyridin-6-yl]-6-(piperazin-1-yl)pyridin-2-amine]: below 0.1 µM and 1 to 5 µM.
Turning to `Cc1cccnc1-c1nc2cc(Nc3cccc(N4CCNC5CC54)n3)ncc2s1` (stereo not drawn) [Example 87, 6-{2,5-Diazabicyclo[4.1.0]heptan-2-yl}-N-[2-(3-methylpyridin-2-yl)-[1,3]thiazolo[5,4-c]pyridin-6-yl]pyridin-2-amine], the IC50 on HPK1 (setting [2]) was below 0.1 µM; in assay [1] it was 1 to 5 µM.
`CN1C[C@@H]2C[C@H]1CN2c1cccc(Nc2cc3nc(-c4cccnc4)sc3cn2)n1` [Example 89, 6-[(1S,4S)-5-Methyl-2,5-diazabicyclo[2.2.1]heptan-2-yl]-N-[2-(pyridin-3-yl)-[1,3]thiazolo[5,4-c]pyridin-6-yl]pyridin-2-amine]: the figures for the IC50 (on HPK1 (setting [2]); in assay [1]) were below 0.1 µM and 0.1 to 1 µM, respectively.
As to `Cc1cccnc1-c1nc2cc(Nc3cccc(N4C[C@@H]5C[C@H]4CN5C)n3)ncc2s1` [Example 90, 6-[(1S,4S)-5-Methyl-2,5-diazabicyclo[2.2.1]heptan-2-yl]-N-[2-(3-methylpyridin-2-yl)-[1,3]thiazolo[5,4-c]pyridin-6-yl]pyridin-2-amine], the results for the IC50 (on HPK1 (setting [2]); in assay [1]) were below 0.1 µM and 0.1 to 1 µM, respectively.
On to `CN1C[C@@H]2C[C@H]1CN2c1cccc(Nc2cc3nc(-c4ncccc4C(F)(F)F)sc3cn2)n1` [Example 92, 6-[(1S,4S)-5-Methyl-2,5-diazabicyclo[2.2.1]heptan-2-yl]-N-{2-[3-(trifluoromethyl)pyridin-2-yl]-[1,3]thiazolo[5,4-c]pyridin-6-yl}pyridin-2-amine], for which the figures for the IC50 (at HPK1 (setting [2]); in assay [1]) were below 0.1 µM and 0.1 to 1 µM, respectively.
`CC(C)c1cccnc1-c1nc2cc(Nc3cccc(N4C[C@@H]5C[C@H]4CN5C)n3)ncc2s1` [Example 93, 6-[(1S,4S)-5-Methyl-2,5-diazabicyclo[2.2.1]heptan-2-yl]-N-{2-[3-(propan-2-yl)pyridin-2-yl]-[1,3]thiazolo[5,4-c]pyridin-6-yl}pyridin-2-amine]: the IC50 on HPK1 (setting [2]) is below 0.1 µM; in assay [1] it was 0.1 to 1 µM.
Take `Cc1cc(-c2nc3cc(Nc4cccc(N5C[C@@H]6C[C@H]5CN6C)n4)ncc3s2)ccn1` [Example 96, 6-[(1S,4S)-5-Methyl-2,5-diazabicyclo[2.2.1]heptan-2-yl]-N-[2-(2-methylpyridin-4-yl)-[1,3]thiazolo[5,4-c]pyridin-6-yl]pyridin-2-amine]: the IC50 on HPK1 (setting [2]) is below 0.1 µM; at HPK1 (5 nM HPK1, 200 μM ATP, read-out: Biochemical Potency (high ATP)), below 0.1 µM; in assay [1], 0.1 to 1 µM.
